Counter-ions that a name gives are not always drawn. Like-named read-outs stand apart in the source and are kept apart here.
Assays:
[1] = Odor threshold of perfuming compounds in air
[2] = physchem
[3] = Log P (n-octanol/water) of perfuming compounds
[4] = Volatility of perfuming compounds in air; format: physicochemical
[5] = n-octanol/water, perfuming compounds having a fruity note (Table 6)
[6] = Table 5, perfuming compounds having a green note

SMILES | Odor Threshold ([1]; Table 7, citrus note) [μg/l air] | logP ([2]; n-octanol/water) | Volatility ([4]; Table 4, watery note) [μg/l air] | Odor Threshold ([1]; Table 4, watery note) [μg/l air] | further results
O=COCCc1ccccc1 [2-PHENYLETHYL FORMATE] | 8.34E−04 | 1.9 | – | – | Log P (n-octanol/water) ([3]; Table 7, citrus note): 1.90; Log P (n-octanol/water) [3, 5]: 1.90
CC(C)=CCCC1=CCC(C)(C=O)CC1 (racemic) | – | 5.14 | 26.54 | 2.72E−02 | –
CCCCCCCCCCCC=O [DODECANAL] | – | 4.94 | 144.79 | 9.90E−04 | –
CCCCCC#CC(=O)OC [METHYL 2-OCTYNOATE″, METHYL 2-OCTYNOATE] | – | 2.9 | 472.01 | 8.31E−04 | Volatility [4, 6]: 472.01 μg/l air
CCCCCCCCCCC=O [undecanal] | – | 4.56 | 178.29 | 1.65E−03 | –
CC(C=O)Cc1ccc2c(c1)OCO2 (racemic) [(+−)-3-(1,3-BENZODIOXOL-5-YL)-2-METHYLPROPANAL] | – | – | 3.57 | 2.23E−04 | logP [2]: 1.28
CCC(C)C(=O)OC(C)C (racemic) [(+−)-ISOPROPYL 2-METHYLBUTANOATE] | 8.42E−03 | 2.85 | – | – | Log P (n-octanol/water) ([3]; Table 7, citrus note): 2.85
CC/C=C\CC/C=C/CO [(2E,6Z)-2,6-NONADIEN-1-OL] | – | 2.68 | 98.76 | 3.22E−06 | Volatility [4, 6]: 98.76 μg/l air; Log P (n-octanol/water) [3, 6]: 2.68
CC(C)CCCC(C)CCO (racemic) | 4.59E−02 | 4.24 | – | – | Volatility ([4]; Table 7, citrus note): 76.57 μg/l air
COC(=O)c1c(C)cc(O)c(C)c1O [METHYL 2,4-DIHYDROXY-3,6-DIMETHYLBENZOATE] | – | 2.3 | 1.52 | 4.89E−06 | –
C=CC(C)CC(=O)CC(C)C (racemic) | 2.78E−01 | 3.12 | – | – | Log P (n-octanol/water) ([3]; Table 7, citrus note): 3.12
CC(C)=CCCC(C)CCCC(C)C=O (racemic) | – | 5.2 | 18.23 | 1.59E−02 | –
CC(C)CC1CC(C)(O)CCO1 (racemic) [(+−)-TETRAHYDRO-2-ISOBUTYL-4-METHYL-4(2H)-PYRANOL] | – | 2.22 | 79.79 | 1.35E−02 | –
CC(C)(C)c1ccc2c(c1)OCC(=O)CO2 [7-(2-methyl-2-propanyl)-2H-1,5-benzodioxepin-3(4H)-one] | – | 2.97 | 4.37 | 1.53E−04 | Volatility [4, 6]: 4.37 μg/l air; Log P (n-octanol/water) [3, 6]: 2.97
CC(C)=CCCC(C)CCOCC=O (racemic) | 8.95E−04 | 4.33 | – | – | Volatility ([4]; Table 7, citrus note): 4.70 μg/l air
CCCc1ccc2c(c1)OCC(=O)CO2 [7-PROPYL-2H,4H-1,5-BENZODIOXEPIN-3-ONE] | – | 2.79 | 4.85 | 6.43E−05 | Volatility [4, 6]: 4.85 μg/l air; Log P (n-octanol/water) [3, 6]: 2.79
CCCCCCC#CC(=O)OC [METHYL 2-NONYNOATE] | – | 3.51 | 91.76 | 1.60E−03 | Volatility [4, 6]: 91.76 μg/l air; Log P (n-octanol/water) [3, 6]: 3.51
CC/C=C\CC/C=C/C=O [(2E,6Z)-2,6-NONADIENAL″, (2E,6Z)-2,6-NONADIENAL] | – | – | 632.43 | 1.46E−04 | Volatility [4, 6]: 632.43 μg/l air
COCC(C)Cc1ccccc1 (racemic) [(+−)-(3-methoxy-2-methylpropyl)benzene] | 1.51E−02 | 3.57 | – | – | Log P (n-octanol/water) ([3]; Table 7, citrus note): 3.57; Log P (n-octanol/water) [3, 5]: 3.57
CC(C)=CCCC(C)C=O (racemic) | – | 3.15 | – | 2.11E−04 | Log P (n-octanol/water) [3, 5]: 3.15
CCCCCCCCOC(C)=O [octyl acetate] | 1.76E−01 | 4.29 | – | – | Log P (n-octanol/water) ([3]; Table 7, citrus note): 4.29

SMILES | Odor Threshold ([1]; Table 7, citrus note) [μg/l air] | logP ([2]; n-octanol/water) | Volatility ([4]; Table 4, watery note) [μg/l air] | Odor Threshold ([1]; Table 4, watery note) [μg/l air] | further results
CC1=CCC(C(C)C)=CC1 [1-methyl-4-(2-propanyl)-1,4-cyclohexadiene] | 1.16E−01 | – | – | – | Volatility ([4]; Table 7, citrus note): 4298.67 μg/l air; logP [2]: 5.87
CCCCCC=O [hexanal] | 1.76E−03 | 2 | – | – | Volatility [4, 6]: 68294.85 μg/l air; Volatility ([4]; Table 7, citrus note): 68294.85 μg/l air; Log P (n-octanol/water) ([3]; Table 7, citrus note): 2.00
C=CC(C)(CCC=C(C)C)OC(C)=O (racemic) [(+−)-1,5-DIMETHYL-1-VINYL-4-HEXENYL ACETATE] | 7.40E−02 | – | – | – | logP [2]: 4.04; Log P (n-octanol/water) ([3]; Table 7, citrus note): 4.04; Log P (n-octanol/water) [3, 5]: 4.04
CC(C=O)Cc1ccc(C(C)C)cc1 (racemic) [(+−)-3-(4-isopropylphenyl)-2-methylpropanal] | – | 3.59 | 24.85 | 3.00E−03 | –
CCCOC(=O)[C@H](C)OC(C)(C)CC [(−)-PROPYL (S)-2-(1,1-DIMETHYLPROPOXY)PROPANOATE] | 4.98E−01 | 3.17 | – | – | –
CCCCC[C@H]1C(=O)CC[C@@H]1CC(=O)OC (racemic) [methyl 2-((1RS,2RS)-3-oxo-2-pentylcyclopentyl)acetate] | 5.77E−04 | 2.92 | – | – | Volatility ([4]; Table 7, citrus note): 2.12 μg/l air
CC(C=O)Cc1ccc(C(C)(C)C)cc1 (racemic) [(+−)-2-methyl-3-[4-(2-methyl-2-propanyl)phenyl]propanal] | – | 3.9 | 12.86 | 2.39E−04 | –
CC(=O)OC(C)c1ccccc1 (racemic) [(+−)-1-PHENYLETHYL ACETATE] | 4.43E−02 | 2.22 | – | – | Log P (n-octanol/water) ([3]; Table 7, citrus note): 2.22
CCCCCCCOC(C)=O [heptyl acetate] | 1.32E−01 | 3.69 | – | – | Log P (n-octanol/water) ([3]; Table 7, citrus note): 3.69
CC(CC=O)CCCC(C)(C)O (racemic) [(+−)-7-hydroxy-3,7-dimethyloctanal] | – | 2 | 12.81 | 6.98E−03 | –
CCC/C=C/C=O [(2E)-2-HEXENAL] | 2.53E−03 | 1.62 | – | – | Log P (n-octanol/water) ([3]; Table 7, citrus note): 1.62; Log P (n-octanol/water) [3, 5]: 1.62
CCCCCCCCCCCC#N [DODECANENITRILE] | – | 1.61 | 56.74 | 3.20E−06 | –
Cc1ccc2c(c1)CC(C)(CO)C2 (racemic) | – | 3.12 | 4.86 | 1.28E−04 | –
CCCCCCCCCC(C)C=O (racemic) [(+−)-2-methylundecanal] | – | 5.01 | 75.55 | 7.24E−05 | –
CCOc1ccc2ccccc2c1 [2-ETHOXYNAPHTHALENE] | 3.57E−03 | 3.82 | – | – | Volatility ([4]; Table 7, citrus note): 22.67 μg/l air
CCCCCC(C#N)CCC (racemic) [(+−)-2-propylheptanenitrile] | 7.83E−02 | 3.67 | – | – | Log P (n-octanol/water) ([3]; Table 7, citrus note): 3.67
C=CCCCCCCCCC=O [10-undecenal] | – | 3.93 | 136.73 | 3.15E−03 | –
CC(C)c1cccc(C(C)CC=O)c1 (racemic) [(+−)-3-(3-ISOPROPYL-1-PHENYL)BUTANAL] | – | – | 14.74 | 7.71E−04 | Volatility [4, 6]: 14.74 μg/l air
CC(OC=O)C1CCCC(C)(C)C1 (stereo not shown) [1-(3,3-DIMETHYL-1-CYCLOHEXYL)ETHYL FORMATE] | 2.05E−01 | 4.01 | – | – | –
CCCCCCCCCC=O [DECANAL″, DECANAL] | – | 3.99 | 466.56 | 1.92E−03 | –
